Experimental data: ChEMBL document CHEMBL4130341 (Medchemcomm, 2016)
The source made the active and inactive calls. No cut-off for these calls is given here.

Key:
Rattus norvegicus [1] = assay: In vivo induction of GST activity in Wistar rat liver cytosolic fraction at 15 mg/kg, po qd administered over 2 weeks by measuring GS-CDNB adduct formation using CDNB/GSH as substrate measured for 1 min relative to control; assay type: functional
Rattus norvegicus [2] = assay: In vivo induction of CYP450 activity in Wistar rat mammary gland microsomal fraction at 15 mg/kg, po qd administered over 2 weeks by measuring EROD activity using 7-ethoxyresorufine as substrate measured for 5 mins; assay type: ADME, organism-based; conditions: microsomes
[3] = molecular target: T1, Nuclear factor erythroid 2-related factor 2 (Mus musculus) (UniProt Q60795); assay: Ratio of activation of wild type Nrf2 in mouse Hepa1c1c7 cells cytosolic fraction to activation of Nrf2 in mutant mouse BpRc1 cells cytosolic fraction; assay type: cell-based
T1 sequence (whole entry): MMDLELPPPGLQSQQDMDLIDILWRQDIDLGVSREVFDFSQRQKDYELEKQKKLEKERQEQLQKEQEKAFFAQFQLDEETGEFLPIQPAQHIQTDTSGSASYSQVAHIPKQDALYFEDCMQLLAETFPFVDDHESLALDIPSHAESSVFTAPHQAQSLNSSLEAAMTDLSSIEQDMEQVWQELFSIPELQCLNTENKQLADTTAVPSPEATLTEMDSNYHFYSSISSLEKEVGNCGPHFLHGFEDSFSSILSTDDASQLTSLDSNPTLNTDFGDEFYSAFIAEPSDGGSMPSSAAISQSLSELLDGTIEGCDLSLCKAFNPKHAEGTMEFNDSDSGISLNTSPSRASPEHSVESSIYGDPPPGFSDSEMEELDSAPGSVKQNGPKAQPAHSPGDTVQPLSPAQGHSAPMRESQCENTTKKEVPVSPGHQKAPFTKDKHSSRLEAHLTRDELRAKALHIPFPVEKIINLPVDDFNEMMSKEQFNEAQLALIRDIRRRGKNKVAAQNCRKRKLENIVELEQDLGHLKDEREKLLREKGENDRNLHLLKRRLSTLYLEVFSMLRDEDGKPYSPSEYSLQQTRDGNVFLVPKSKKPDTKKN

Rattus norvegicus [4] = assay: Toxicity in Wistar rat assessed as effect on body weight at 15 mg/kg, po qd administered over 2 weeks; assay type: organism-based; conditions: in vivo, 336 h
[5] = molecular target: T1, Nuclear factor erythroid 2-related factor 2 (Mus musculus); assay: Ratio of CD for activation of Nrf2 in mutant mouse BpRc1 cells cytosolic fraction to CD for activation of Nrf2 in wild type mouse Hepa1c1c7 cells cytosolic fraction; assay type: cell-based
Rattus norvegicus [6] = assay: In vivo induction of CYP450 activity in Wistar rat liver microsomal fraction at 15 mg/kg, po qd administered over 2 weeks by measuring EROD activity using 7-ethoxyresorufine as substrate measured for 5 mins; assay type: ADME, organism-based; conditions: microsomes
TK-10 = assay: Cytotoxicity against human TK10 cells assessed as cell survival after 24 hrs by SRB assay; assay type: functional, cell-based; conditions: TK-10, 24 h
HK-2 = assay: Genotoxicity in human HK2 cells assessed as induction of DNA strand breakage at 20 uM after 6 hrs by DAPI staining based alkaline comet assay; assay type: toxicity, cell-based; conditions: hk-2, 6 h
[7] = Ratio of IC50 for cytotoxicity against wild type mouse Hepa1c1c7 cells to CD for activation of Nrf2 in wild type mouse Hepa1c1c7 cells cytosolic fraction
[8] = molecular target: T1, Nuclear factor erythroid 2-related factor 2 (Mus musculus); assay: Activation of Nrf2 in mutant mouse BpRc1 cells cytosolic fraction assessed as induction of quinone reductase activity using 2,6-DCIP as substrate in presence of NADH incubated for 48 hrs measured for 1 min; assay type: cell-based
[9] = Cytotoxicity against wild type mouse Hepa1c1c7 cells after 48 hrs by SRB assay; assay type: functional, cell-based; conditions: Hepa-1c1c7, 48 h
[10] = molecular target: T1, Nuclear factor erythroid 2-related factor 2 (Mus musculus); assay: Activation of Nrf2 in mutant mouse BpRc1 cells cytosolic fraction assessed as induction of quinone reductase activity at 10 uM using 2,6-DCIP as substrate in presence of NADH incubated for 48 hrs measured for 1 min relative to control; assay type: cell-based
Rattus norvegicus [11] = assay: In vivo induction of quinone reductase activity in Wistar rat mammary gland cytosolic fraction at 15 mg/kg, po qd administered over 2 weeks using 2,6-DCIP as substrate relative to control; assay type: functional
[12] = molecular target: T1, Nuclear factor erythroid 2-related factor 2 (Mus musculus); assay: Activation of Nrf2 in wild type mouse Hepa1c1c7 cells cytosolic fraction assessed as induction of quinone reductase activity using 2,6-DCIP as substrate in presence of NADH incubated for 48 hrs measured for 1 min
[13] = Cytotoxicity against mutant mouse BpRc1 cells after 48 hrs by SRB assay; assay type: functional, cell-based; conditions: BPrc1, 48 h
[14] = Ratio of IC50 for cytotoxicity against mutant mouse BpRc1 cells to CD for activation of Nrf2 in mutant mouse BpRc1 cells cytosolic fraction
Rattus norvegicus [15] = assay: In vivo induction of GST activity in Wistar rat colon cytosolic fraction at 15 mg/kg, po qd administered over 2 weeks by measuring GS-CDNB adduct formation using CDNB/GSH as substrate measured for 1 min relative to control; assay type: functional
Rattus norvegicus [16] = assay: Toxicity in Wistar rat assessed as effect on behavior at 15 mg/kg, po qd administered over 2 weeks; assay type: organism-based; conditions: in vivo, 336 h
[17] = molecular target: T1, Nuclear factor erythroid 2-related factor 2 (Mus musculus); assay: Activation of Nrf2 in wild type mouse Hepa1c1c7 cells cytosolic fraction assessed as induction of quinone reductase activity at 10 uM using 2,6-DCIP as substrate in presence of NADH incubated for 48 hrs measured for 1 min relative to control
Rattus norvegicus [18] = assay: In vivo induction of quinone reductase activity in Wistar rat colon cytosolic fraction at 15 mg/kg, po qd administered over 2 weeks using 2,6-DCIP as substrate relative to control; assay type: functional
Rattus norvegicus [19] = assay: In vivo induction of quinone reductase activity in Wistar rat liver cytosolic fraction at 15 mg/kg, po qd administered over 2 weeks using 2,6-DCIP as substrate relative to control; assay type: functional
MCF7 = assay: Cytotoxicity against human MCF7 cells assessed as cell survival at 100 uM after 24 hrs by SRB assay relative to control; assay type: functional
[20] = molecular target: T1, Nuclear factor erythroid 2-related factor 2 (Mus musculus); assay: Induction of Nrf2 nuclear translocation in mouse Hepa1c1c7 cells at 20 uM after 6 hrs by DAPI/Hoechst 33258 staining-based immunofluorescence method; assay type: cell-based
Rattus norvegicus [21] = assay: In vivo induction of GST activity in Wistar rat mammary gland cytosolic fraction at 15 mg/kg, po qd administered over 2 weeks by measuring GS-CDNB adduct formation using CDNB/GSH as substrate measured for 1 min relative to control; assay type: functional
Salmonella typhimurium = assay: Mutagenicity in Salmonella typhimurium TA98 in presence of mouse liver S9 fraction by Ames test; assay type: toxicity, organism-based; conditions: salmonella enterica subsp. enterica serovar typhimurium
Rattus norvegicus [22] = assay: In vivo induction of CYP450 activity in Wistar rat colon microsomal fraction at 15 mg/kg, po qd administered over 2 weeks by measuring EROD activity using 7-ethoxyresorufine as substrate measured for 5 mins; assay type: ADME, organism-based; conditions: microsomes

## O=C(/C=C/c1cccnc1Br)c1ccccc1O
Rattus norvegicus [1]
  Activity: 29%
Rattus norvegicus [2]
  Activity: Non-Toxic
[3]
  Ratio: 0.8
Rattus norvegicus [4]
  Activity: Non-Toxic
[5]
  Ratio: 0.71
Rattus norvegicus [6]
  Activity: Non-Toxic
TK-10
  IC50: 26 µM
HK-2
  Activity: Non-Toxic
[7]
  Ratio: 2.8
[8]
  CD: 10 µM
[9]
  IC50: 39 µM
[10]
  fold change (FC): 1.98
Rattus norvegicus [11]
  Activity: 13%
[12]
  CD: 14 µM
[13]
  IC50: > 200 µM
[14]
  Ratio: >20
Rattus norvegicus [15]
  Activity: 16%
Rattus norvegicus [16]
  Activity: Non-Toxic
[17]
  fold change (FC): 1.57
Rattus norvegicus [18]
  Activity: 11%
Rattus norvegicus [19]
  Activity: 25%
MCF7
  Activity: Active
[20]
  Activity: Active
Rattus norvegicus [21]
  Activity: 10%
Salmonella typhimurium
  Activity: Non-Toxic
Rattus norvegicus [22]
  Activity: Non-Toxic
